Here are results for eight compounds from patent US8058447B2, “4-Chromenonyl-1,4-dihydropyridinecarbonitriles and the use thereof” (Bayer Pharma Aktiengesellschaft, priority 2005, dated 2011).

In the test the target is T1, human mineralocorticoid receptor (MR) (Homo sapiens, UniProt P08235).
T1 construct: expressed in transfected cells
T1 sequence (P08235 734-984 limits assumed): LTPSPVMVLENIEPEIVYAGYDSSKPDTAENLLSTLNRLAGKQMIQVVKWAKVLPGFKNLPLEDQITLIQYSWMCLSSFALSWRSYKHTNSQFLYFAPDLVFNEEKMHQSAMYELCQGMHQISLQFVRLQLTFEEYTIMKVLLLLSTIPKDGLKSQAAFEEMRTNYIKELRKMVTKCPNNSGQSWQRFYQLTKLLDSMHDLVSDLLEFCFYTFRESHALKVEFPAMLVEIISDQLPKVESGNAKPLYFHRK
The test can be described thus: Cellular in vitro assay to determine the inhibitory MR activity (GAL4-MR chimera luciferase reporter in CHO K1 cells). Type of test: cell-based. Particulars: antagonism of aldosterone-stimulated luciferase in CHO K1 cells expressing GAL4-MR chimera. The source says:
1. Cellular In Vitro Assay to Determine the Inhibitory MR Activity and MR Selectivity Compared with Other Steroid Hormone Receptors
Antagonists of the human mineralocorticoid receptor (MR) are identified, and the activity of the compounds described herein is quantified with the aid of a recombinant cell line. The cell is originally derived from a hamster ovary epithelial cell (Chinese Hamster Ovary, CHO K1, ATCC: American Type Culture Collection, VA 20108, USA).
An established chimera system in which the ligand-binding domains of human steroid hormone receptors are fused to the DNA binding domain of the yeast transcription factor GAL4 is used in this CHO K1 cell line. The GAL4-steroid hormone receptor chimeras produced in this way are cotransfected and stably expressed with a reporter construct in the CHO cells.
To generate the GAL4-steroid hormone receptor chimeras, the GAL4 DNA binding domain (amino acids 1-147) from the vector pFC2-dbd (from Stratagene) is cloned with the PCR-amplified ligand-binding domains of the mineralocorticoid receptor (MR, amino acids 734-985), of the glucocorticoid receptor (GR, amino acids 443-777), of the progesterone receptor (PR, amino acids 680-933) and of the androgen receptor (AR, amino acids 667-919) into the vector pIRES2 (from Clontech). The reporter construct, which comprises five copies of the GAL4 binding site upstream of a thymidine kinase promoter, leads to expression of firefly luciferase (Photinus pyralis) after activation and binding of the GAL4-steroid hormone receptor chimeras by the respective specific agonists aldosterone (MR), dexamethasone (GR), progesterone (PR) and dihydrotestosterone (AR).
The MR, GR, PR and AR cells are plated out in medium (Optimem, 2.5% FCS, 2 mM glutamine, 10 mM HEPES) in 96- (or 384- or 1536-) well microtiter plates on the day before the assay and are kept in a cell incubator (96% humidity, 5% v/v CO2, 37° C.). On the day of the assay, the substances to be tested are taken up in the abovementioned medium and added to the cells. About 10 to 30 minutes after addition of the test substances, the respective specific agonists of the steroid hormone receptors are added. After a further incubation time of 5 to 6 hours, the luciferase activity is measured with the aid of a video camera. The measured relative light units as a function of the substance concentration result in a sigmoidal stimulation curve. The IC50 values are calculated with the aid of the GraphPad PRISM computer program (Version 3.02).
(In general: Reporter assays use an easily measured gene product as a stand-in for the process of interest.)
In general, IC50 refers to the concentration that inhibits the measured activity by half. Higher therefore signals lower potency. For `CCOC(=O)C1=C(C)NC(C(F)(F)F)=C(C#N)C1c1cccc2c(=O)cc(C)oc12` (racemic) [Example 29, Ethyl 5-cyano-2-methyl-4-(2-methyl-4-oxo-4H-chromen-8-yl)-6-(trifluoromethyl)-1,4-dihydropyridine-3-carboxylate], half-maximal inhibition (IC50) was put at 193 nM.
The compound `CC1=C(C#N)[C@@H](c2cc(F)c(F)c3c(=O)cc(C)oc23)C(C(=O)OC2CCC2)=C(C)N1` (single isomer, unassigned) [Example 18] came in with an IC50 of 22 nM.
`CCOC(=O)C1=C(C)NC(C(F)(F)F)=C(C#N)[C@H]1c1cccc2c(=O)cc(C)oc12` (single isomer, unassigned) [Example 30] yielded an IC50 of 89 nM. Compared with the last compound, the IC50 is about 4-fold higher.
Consider `CC1=C(C#N)C(c2ccc(F)c3c(=O)cc(C)oc23)C(C(=O)CC2CCC2)=C(C)N1` (centres unmarked) [Example 13, 5-(Cyclobutylacetyl)-4-(5-fluoro-2-methyl-4-oxo-4H-chromen-8-yl)-2,6-dimethyl-1,4-dihydropyridine-3-carbonitrile], for which the IC50 worked out at 127 nM.
On to `CC1=C(C#N)C(c2ccc(F)c3c(=O)cc(C)oc23)C(C(=O)CCC(C)C)=C(C)N1` (centres unmarked) [Example 14, 4-(5-Fluoro-2-methyl-4-oxo-4H-chromen-8-yl)-2,6-dimethyl-5-(4-methylpentanoyl)-1,4-dihydropyridine-3-carbonitrile], for which the IC50 amounted to 195 nM.
As for `CC1=C(C#N)C(c2ccc(F)c3c(=O)cc(C)oc23)C(C(=O)CCC2CCC2)=C(C)N1` (centres unmarked) [Example 15, 5-(3-Cyclobutylpropanoyl)-4-(5-fluoro-2-methyl-4-oxo-4H-chromen-8-yl)-2,6-dimethyl-1,4-dihydropyridine-3-carbonitrile], the IC50 came to 93 nM.
`CC1=C(C#N)C(c2ccc([N+](=O)[O-])c3c(=O)cc(C)oc23)C(C(=O)OC(C)C)=C(C)N1` (centres unmarked) [Example 32, Isopropyl 5-cyano-2,6-dimethyl-4-(2-methyl-5-nitro-4-oxo-4H-chromen-8-yl)-1,4-dihydropyridine-3-carboxylate]: half-maximal inhibition (IC50) required 105 nM. The IC50 values of the last two compounds are within 1.5-fold of each other.
As to `CC1=C(C#N)C(c2cccc3c(=O)cc(C)oc23)C(C(=O)CC2CCCC2)=C(C)N1` (centres unmarked) [Example 41, 5-(Cyclopentylacetyl)-2,6-dimethyl-4-(2-methyl-4-oxo-4H-chromen-8-yl)-1,4-dihydropyridine-3-carbonitrile], inhibition was half-maximal at 290 nM (IC50). Against the preceding compound, the IC50 is about 2.8-fold higher.
